# Reference: the supplement of paper PMC10307832
# What was measured:
# Test in all cases: relative viability (nuclei count vs DMSO), 5 days (fraction); higher = more cells survive
# 17-AAG + Lapatinib = compound: C=CCNC1=C2C[C@@H](C)C[C@H](OC)[C@H](O)[C@@H](C)/C=C(\C)[C@H](OC(N)=O)[C@@H](OC)/C=C\C=C(/C)C(=O)NC(=CC1=O)C2=O [17-AAG] + CS(=O)(=O)CCNCc1ccc(-c2ccc3ncnc(Nc4ccc(OCc5cccc(F)c5)c(Cl)c4)c3c2)o1 [Lapatinib] (partner 2 µM)
# Outline: (§1)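 Dosing by pin tool came one day after lung cancer cell lines were seeded in 1536-well plates, using either one drug or a fixed anchor-drug dose plus five library-drug doses (not always all listed) in √10 steps. After 5 days, nuclei were counted on 4× images. Relative viability is treated-well nuclei count divided by vehicle-well nuclei count, and values are medians of duplicate plates.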
# 17-AAG + Olaparib = compound: C=CCNC1=C2C[C@@H](C)C[C@H](OC)[C@H](O)[C@@H](C)/C=C(\C)[C@H](OC(N)=O)[C@@H](OC)/C=C\C=C(/C)C(=O)NC(=CC1=O)C2=O [17-AAG] + O=C(c1cc(Cc2n[nH]c(=O)c3ccccc23)ccc1F)N1CCN(C(=O)C2CC2)CC1 [Olaparib] (partner 8 µM)
# Outline: as §1
# 17-AAG + Phenformin = compound: C=CCNC1=C2C[C@@H](C)C[C@H](OC)[C@H](O)[C@@H](C)/C=C(\C)[C@H](OC(N)=O)[C@@H](OC)/C=C\C=C(/C)C(=O)NC(=CC1=O)C2=O [17-AAG] + N=C(N)NC(=N)NCCc1ccccc1 [Phenformin] (partner 250 µM)
# Outline: as §1
# 17-AAG + Trametinib = compound: C=CCNC1=C2C[C@@H](C)C[C@H](OC)[C@H](O)[C@@H](C)/C=C(\C)[C@H](OC(N)=O)[C@@H](OC)/C=C\C=C(/C)C(=O)NC(=CC1=O)C2=O [17-AAG] + CC(=O)Nc1cccc(-n2c(=O)n(C3CC3)c(=O)c3c(Nc4ccc(I)cc4F)n(C)c(=O)c(C)c32)c1 [Trametinib] (partner 0.02 µM)
# Outline: as §1
Cell Line,relative viability (17-AAG + Lapatinib; first compound 0.00128 µM),relative viability (17-AAG + Lapatinib; first compound 0.004048 µM),relative viability (17-AAG + Lapatinib; first compound 0.0128 µM),relative viability (17-AAG + Lapatinib; first compound 0.04048 µM),relative viability (17-AAG + Lapatinib; first compound 0.128 µM),relative viability (17-AAG + Olaparib; first compound 0.00128 µM),relative viability (17-AAG + Olaparib; first compound 0.004048 µM),relative viability (17-AAG + Olaparib; first compound 0.0128 µM),relative viability (17-AAG + Olaparib; first compound 0.04048 µM),relative viability (17-AAG + Olaparib; first compound 0.128 µM),relative viability (17-AAG + Phenformin; first compound 0.00128 µM),relative viability (17-AAG + Phenformin; first compound 0.004048 µM),relative viability (17-AAG + Phenformin; first compound 0.0128 µM),relative viability (17-AAG + Phenformin; first compound 0.04048 µM),relative viability (17-AAG + Phenformin; first compound 0.128 µM),relative viability (17-AAG + Trametinib; first compound 0.00128 µM),relative viability (17-AAG + Trametinib; first compound 0.004048 µM),relative viability (17-AAG + Trametinib; first compound 0.0128 µM),relative viability (17-AAG + Trametinib; first compound 0.04048 µM),relative viability (17-AAG + Trametinib; first compound 0.128 µM)
H3255,0.296,0.338,0.275,0.235,0.175,0.556,0.494,0.484,0.284,0.231,0.365,0.368,0.331,0.234,0.189,0.597,0.556,0.544,0.31,0.21
HCC-44,1.06,0.986,0.998,0.287,0.125,0.976,0.989,1,0.997,0.492,0.22,0.285,0.158,0.0925,0.0873,1.04,1.01,0.988,1.05,0.804
NCI-H1734,0.952,0.934,0.764,0.579,0.141,0.558,0.686,0.59,0.255,0.119,0.371,0.368,0.305,0.142,0.118,0.759,0.633,0.576,0.245,0.15
NCI-H2228,1.08,0.109,0.128,0.161,0.168,0.523,0.21,0.127,0.111,0.147,0.337,0.185,0.0958,0.099,0.0688,0.378,0.232,0.102,0.113,0.144
COR-L23,0.769,0.82,1.06,0.852,0.169,0.377,0.322,0.324,0.169,0.112,0.459,0.438,0.419,0.269,0.103,0.664,0.504,0.438,0.158,0.0809
NCI-H727,0.775,0.765,0.829,0.238,0.342,0.619,0.737,0.696,0.707,0.386,0.535,0.445,0.475,0.287,0.277,0.356,0.409,0.319,0.237,0.221
NCI-H1993,0.767,0.76,0.627,0.45,0.451,1.16,0.949,0.98,0.37,0.299,0.507,0.451,0.472,0.397,0.404,0.61,0.464,0.49,0.313,0.387
NCI-H1437,0.825,0.7,0.247,0.151,0.0848,0.626,0.609,0.285,0.194,0.173,0.312,0.316,0.179,0.153,0.129,0.582,0.562,0.32,0.291,0.195
NCI-H2347,0.938,0.96,1.04,0.647,0.432,0.589,0.607,0.496,0.349,0.341,0.466,0.38,0.275,0.187,0.191,0.335,0.275,0.351,0.288,0.321
201T,1,1.04,0.991,0.999,0.512,0.843,0.857,0.849,0.802,0.748,0.484,0.391,0.341,0.244,0.248,0.778,0.729,0.688,0.702,0.682
NCI-H358,0.504,0.324,0.162,0.137,0.121,0.606,0.522,0.0873,0.0667,0.0637,0.321,0.155,0.0612,0.0774,0.0534,0.128,0.0832,0.0659,0.0673,0.0679
NCI-H1650,0.624,0.303,0.133,0.171,0.175,0.721,0.636,0.147,0.156,0.113,0.294,0.15,0.146,0.147,0.157,0.657,0.252,0.143,0.126,0.114
LOU-NH91,0.852,0.795,0.521,0.328,0.36,0.894,0.759,0.546,0.395,0.386,0.592,0.513,0.383,0.376,0.307,0.795,0.747,0.584,0.434,0.387
HOP-62,0.875,1.03,0.634,0.12,0.0921,0.445,0.411,0.22,0.171,0.0948,0.711,0.541,0.404,0.305,0.118,0.396,0.35,0.355,0.191,0.167
NCI-H1915,0.883,1.06,0.894,0.571,0.0701,0.263,0.268,0.233,0.129,0.0621,0.358,0.372,0.308,0.106,0.0928,0.293,0.302,0.23,0.103,0.0681
